Source: US9328106B2, “Cyclic ether pyrazol-4-yl-heterocyclyl-carboxamide compounds and methods of use” (Genentech, Inc., priority 2012, dated 2016)
Read-outs that look alike come from different tables or passages of the source.

Columns and labels:
[1] = tested on: MM1.S (multiple myeloma) cells; experiment: In vitro cell proliferation, MM1.S multiple myeloma cells; assay type: cell-based; conditions: MM1.S cells, 72 hours, CELL TITER GLO, read-out: Prolif MM1S ATP (EC50);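 further: cells cultured in RPMI with 10% FBS and 2 mM L-Glutamine, seeded in 384-well plates, exposed to compound, cell viability measured by luminescence after CellTiter-Glo addition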
Experimental: (§1) BaF3 parental line was obtained from the DSMZ repository. […] Media for BaF3 parental line contained RPMI, 10% FBS, 2 mM L-Glutamine, 2 ng/mL mIL-3. Media for BaF3 PIM1 & 2 lines contained RPMI, 10% FBS, 2 mM L-Glutamine, 250 μg/mL. Media for MM1.S (multiple myeloma cells) line contained RPMI, 10% FBS, 2 mM L-Glutamine.
(§2) BaF3, a murine interleukin-3 dependent pro-B cell line, parental cells, BaF3 PIM1 cells, BaF3 PIM2 cells, and MM1.S (multiple myeloma) cells were seeded at 2 k/well, 5 k/well, 5 k/well, and 10 k/well respectively, in a 384-well plate, at 45 μL/well. Test compound was added at 5 μL/well. BaF3 cells (parental and transfected) were incubated overnight, while MM1.S cells were incubated for 72 hours at 37° C., 5% CO2. CELL TITER GLO® Reagent (Promega) was added at 50 μL/well, the plates were incubated for 30 minutes, and their luminescence read on an HT Analyst. IC50/EC50 values for the test compound were calculated.

BaF3 parental cells = experiment: In vitro cell proliferation, BaF3 parental line + IL3; assay type: cell-based, murine; conditions: mIL-3, incubated overnight, CELL TITER GLO, read-out: Prolif BaF3 IL3 (IC50);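 further: BaF3 parental cells are murine IL-3 dependent pro-B cells grown with 2 ng/mL mIL-3, 384-well format, viability read by luminescence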
BaF3 PIM1 cells = experiment: In vitro cell proliferation, BaF3 transfected with PIM1; assay type: cell-based, murine;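 further: murine IL-3-dependent pro-B BaF3 cells transfected with PIM1, compound exposure overnight at 37 °C under 5% CO2, viability read as luminescence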
Experimental: as §1, §2

PIM1 = PIM1 (Homo sapiens (Human), UniProt P11309); experiment: biochemical; assay type: biochemical; conditions: 20 pM PIM1, 1 μM FAM-peptide, 10 μM ATP, 90 minutes at room temperature; read-out: PIM1 LC3K (KI)
PIM1, sequence (P11309 whole entry): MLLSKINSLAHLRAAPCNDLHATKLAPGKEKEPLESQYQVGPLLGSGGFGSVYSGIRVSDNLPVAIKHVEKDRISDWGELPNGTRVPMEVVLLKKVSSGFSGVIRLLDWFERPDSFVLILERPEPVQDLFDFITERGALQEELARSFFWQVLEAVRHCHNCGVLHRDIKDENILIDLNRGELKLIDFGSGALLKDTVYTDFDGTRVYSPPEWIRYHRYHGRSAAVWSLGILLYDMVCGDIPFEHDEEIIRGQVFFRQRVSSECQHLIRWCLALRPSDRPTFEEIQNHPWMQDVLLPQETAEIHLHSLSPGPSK

[2] = Mus musculus, BaF3, BaF3 parental
[3] = read-out: Prolif BaF3 PIM1 (IC50), BaF3 PIM1 cells, incubated overnight, CELL TITER GLO
[4] = Mus musculus, BaF3, read-out: Prolif BaF3 PIM1 (IC50), BaF3 PIM1 cells, incubated overnight, CELL TITER GLO
[5] = Mus musculus, BaF3 PIM1 cells, incubated overnight, CELL TITER GLO, read-out: Prolif BaF3 PIM1 (IC50)

Row | EC50 [1] | IC50 (BaF3 PIM1 cells; [3]) | Ki (PIM1) | EC50 ([1]; Homo sapiens, MM1.S, 72 h) | IC50 (BaF3 PIM1 cells; [4]) | IC50 (BaF3 PIM1 cells; [5]) | Structure (SMILES) | IC50 (BaF3 parental cells; [2]) | IC50 (BaF3 parental cells; BaF3 parental)
1 |  |  | 0.003 nM | 6900 nM | 96.8 nM |  | C[C@H]1O[C@@H](c2c(NC(=O)c3csc(-c4c(F)cccc4F)n3)cnn2C)C[C@@H](N)[C@]1(C)O (single isomer, unassigned) [Example 341] | > 25000 nM | 
2 |  |  | 2.3 nM | 21600 nM | 12700 nM |  | C[C@@H]1O[C@@H](c2c(NC(=O)c3csc(-c4c(F)cccc4F)n3)cnn2C)C[C@H](N)[C@@]1(C)O (single isomer, unassigned) [Example 342] | 10000 nM | 
3 |  |  |  | 781 nM |  | 342 nM | C[C@H]1O[C@@H](c2c(NC(=O)c3ccc(F)c(-c4c(F)cccc4F)n3)cnn2C)C[C@@H](N)[C@]1(C)O (single isomer, unassigned) [Example 343] | 12800 nM | 
4 |  |  |  | > 25000 nM |  | 6800 nM | C[C@H]1O[C@@H](c2c(NC(=O)c3nc(-c4c(F)cccc4F)sc3N)cnn2C)C[C@@H](N)[C@]1(C)O (single isomer, unassigned) [Example 345] | > 25000 nM | 
5 |  |  | 0.079 nM | 7700 nM | 1600 nM |  | Cn1ncc(NC(=O)c2nc(-c3c(F)cccc3F)sc2N)c1[C@H]1CC[C@@H](N)C(F)CO1 (stereo in doubt) [Example 148, 5-Amino-N-[5-[5-amino-6-fluoro-oxepan-2-yl]-1-methyl-pyrazol-4-yl]-2-(2,6-difluorophenyl)thiazole-4-carboxamide] | 25000 nM | 
6 |  |  | 0.502 nM | 8500 nM | 2100 nM |  | CC[C@@H]1CC(N)CC[C@H](c2c(NC(=O)c3nc(-c4c(F)cccc4F)sc3N)cnn2C)O1 (stereo partly drawn) [Example 112, 5-amino-N-(5-((2R,7R)-5-amino-7-ethyloxepan-2-yl)-1-methyl-1H-pyrazol-4-yl)-2-(2,6-difluorophenyl)thiazole-4-carboxamide] | 6900 nM | 
7 |  |  | 0.003 nM | 11.9 nM | 13.6 nM |  | C[C@@H]1C[C@@H](N)CC[C@H](c2c(NC(=O)c3nc(-c4c(F)cccc4F)sc3N)cnn2C)O1 [Example 121, 5-amino-N-(5-((2R,5S,7R)-5-amino-7-methyloxepan-2-yl)-1-methyl-1H-pyrazol-4-yl)-2-(2,6-difluorophenyl)thiazole-4-carboxamide] | 3500 nM | 
8 |  |  |  | 9800 nM |  | 9000 nM | C[C@@H]1O[C@H](c2c(NC(=O)c3ccc(F)c(-c4c(F)cccc4F)n3)cnn2C)C[C@H](N)[C@@]1(C)O [Example 344, N-(5-((2S,4S,5R,6S)-4-amino-5-hydroxy-5,6-dimethyltetrahydro-2H-pyran-2-yl)-1-methyl-1H-pyrazol-4-yl)-6-(2,6-difluorophenyl)-5-fluoropicolinamide] | 14000 nM | 
9 |  |  |  | 4300 nM |  | 517 nM | C[C@@H]1O[C@H](c2c(NC(=O)c3nc(-c4c(F)cccc4F)sc3N)cnn2C)C[C@H](N)[C@@]1(C)O [Example 346, 5-amino-N-(5-((2S,4S,5R,6S)-4-amino-5-hydroxy-5,6-dimethyltetrahydro-2H-pyran-2-yl)-1-methyl-1H-pyrazol-4-yl)-2-(2,6-difluorophenyl)thiazole-4-carboxamide] | > 25000 nM | 

Continued, compound first:

Row | Structure (SMILES) | EC50 [1] | IC50 (BaF3 PIM1 cells; [3]) | Ki (PIM1) | EC50 ([1]; Homo sapiens, MM1.S, 72 h) | IC50 (BaF3 PIM1 cells; [4]) | IC50 (BaF3 PIM1 cells; [5]) | IC50 (BaF3 parental cells; [2]) | IC50 (BaF3 parental cells; BaF3 parental)
10 | Cn1ncc(NC(=O)c2nc(-c3c(F)cccc3F)sc2N)c1C12CCC(O)C(CC1)O2 (single isomer, unassigned) [Example 109, 5-amino-2-(2,6-difluorophenyl)-N-[5-(2-hydroxy-8-oxabicyclo[3.2.1]octan-5-yl)-1-methyl-pyrazol-4-yl]thiazole-4-carboxamide] | 9200 nM | 115 nM | 0.034 nM |  |  |  | 8300 nM | 
11 | Cn1ncc(NC(=O)c2nc(-c3c(F)cccc3F)sc2N)c1C12CCC(O)C(CC1)O2 (single isomer, unassigned) [Example 110, 5-amino-2-(2,6-difluorophenyl)-N-[5-(2-hydroxy-8-oxabicyclo[3.2.1]octan-5-yl)-1-methyl-pyrazol-4-yl]thiazole-4-carboxamide] | 2400 nM | 44.8 nM | 0.017 nM |  |  |  |  | 9400 nM
12 | C[C@H](O)c1ccc(-c2nc(C(=O)Nc3cnn(C)c3[C@@H]3CC[C@@H](N)[C@H](F)CO3)cs2)c(F)c1F (single isomer, unassigned) [Example 365] |  |  | 0.069 nM | 348 nM | 408 nM |  | 15900 nM | 
13 | C[C@@H](O)c1ccc(-c2nc(C(=O)Nc3cnn(C)c3[C@@H]3CC[C@@H](N)[C@H](F)CO3)cs2)c(F)c1F (single isomer, unassigned) [Example 366] |  |  | 0.14 nM | 1700 nM | 302 nM |  | 10300 nM | 
14 | Cn1ncc(NC(=O)c2csc(-c3c(F)cc([C@@H]4CCCO4)cc3F)n2)c1[C@@H]1CC[C@@H](N)[C@H](F)CO1 (single isomer, unassigned) [Example 371] |  |  | 0.057 nM | 4400 nM | 151 nM |  | > 25000 nM | 
15 | Cn1ncc(NC(=O)c2csc(-c3c(F)cc([C@H]4CCCO4)cc3F)n2)c1[C@@H]1CC[C@@H](N)[C@H](F)CO1 (single isomer, unassigned) [Example 380] |  |  | 0.071 nM | 1700 nM | 37.2 nM |  | 12200 nM | 
16 | Cn1ncc(NC(=O)c2nc(-c3c(F)cccc3F)sc2N)c1[C@]12CC[C@H](O1)[C@@H](N)CC2 [Example 115, 5-amino-N-(5-((1S,4S,5S)-4-amino-8-oxabicyclo[3.2.1]octan-1-yl)-1-methyl-1H-pyrazol-4-yl)-2-(2,6-difluorophenyl)thiazole-4-carboxamide] |  |  |  |  | 19.2 nM |  |  | 
17 | Cn1ncc(NC(=O)c2nc(-c3c(F)cccc3F)sc2N)c1[C@@]12CC[C@H](N)[C@@H](CC1)O2 [Example 117, 5-amino-N-(5-((1R,4S,5R)-4-amino-8-oxabicyclo[3.2.1]octan-1-yl)-1-methyl-1H-pyrazol-4-yl)-2-(2,6-difluorophenyl)thiazole-4-carboxamide] |  |  |  | 122 nM | 30.7 nM |  |  | 
18 | Cc1nn(C)c(F)c1-c1nc(C(=O)Nc2cnn(C)c2[C@@H]2CC[C@@H](N)[C@H](F)CO2)cs1 [Example 286, N-(5-((2S,5R,6S)-5-amino-6-fluorooxepan-2-yl)-1-methyl-1H-pyrazol-4-yl)-2-(5-fluoro-1,3-dimethyl-1H-pyrazol-4-yl)thiazole-4-carboxamide] |  |  |  | 12600 nM |  | 947 nM | 11300 nM | 
19 | Cc1ccc(-c2nc(C(=O)Nc3cnn(C)c3[C@@H]3CC[C@@H](N)[C@H](F)CO3)cs2)c(F)c1 [Example 316, N-(5-((2S,5R,6S)-5-amino-6-fluorooxepan-2-yl)-1-methyl-1H-pyrazol-4-yl)-2-(2-fluoro-4-methylphenyl)thiazole-4-carboxamide] |  |  |  | 686 nM |  | 126 nM | 9300 nM | 
20 | Cn1ncc(NC(=O)c2nc(-c3c(Cl)cccc3C(F)(F)F)sc2N)c1[C@@H]1CC[C@@H](N)[C@H](F)CO1 [Example 329, 5-amino-N-(5-((2S,5R,6S)-5-amino-6-fluorooxepan-2-yl)-1-methyl-1H-pyrazol-4-yl)-2-(2-chloro-6-(trifluoromethyl)phenyl)thiazole-4-carboxamide] |  |  |  | 1700 nM | 348 nM |  | 2400 nM | 
21 | Cn1ncc(NC(=O)c2csc(-c3n[nH]c4c3CCCC4)n2)c1[C@@H]1CC[C@@H](N)[C@H](F)CO1 [Example 374, N-(5-((2S,5R,6S)-5-amino-6-fluorooxepan-2-yl)-1-methyl-1H-pyrazol-4-yl)-2-(4,5,6,7-tetrahydro-1H-indazol-3-yl)thiazole-4-carboxamide] |  |  | 0.023 nM |  |  |  | 13100 nM | 
22 | Cn1ncc(NC(=O)c2csc(-c3cnc4cccnc4c3)n2)c1[C@@H]1CC[C@@H](N)[C@H](F)CO1 [Example 399, N-[5-[(2S,5R,6S)-5-amino-6-fluoro-oxepan-2-yl]-1-methyl-pyrazol-4-yl]-2-(1,5-naphthyridin-3-yl)thiazole-4-carboxamide] |  |  | 0.21 nM |  |  |  |  | 
23 | Cn1ncc(NC(=O)c2csc(-c3c(F)ccc4[nH]ccc34)n2)c1[C@@H]1CC[C@@H](N)[C@H](F)CO1 [Example 400, N-[5-[(2S,5R,6S)-5-amino-6-fluoro-oxepan-2-yl]-1-methyl-pyrazol-4-yl]-2-(5-fluoro-1H-indol-4-yl)thiazole-4-carboxamide] |  |  | 0.011 nM |  |  |  |  | 
24 | Cn1ncc(NC(=O)c2csc(-c3cccc(OCc4ccccc4)c3)n2)c1[C@@H]1CC[C@@H](N)[C@H](F)CO1 [Example 401, N-[5-[(2S,5R,6S)-5-amino-6-fluoro-oxepan-2-yl]-1-methyl-pyrazol-4-yl]-2-(3-benzyloxyphenyl)thiazole-4-carboxamide] |  |  | 0.447 nM |  |  |  |  | 
25 | Cn1ncc(NC(=O)c2csc(-c3cccc4c3cnn4C)n2)c1[C@@H]1CC[C@@H](N)[C@H](F)CO1 [Example 402, N-[5-[(2S,5R,6S)-5-amino-6-fluoro-oxepan-2-yl]-1-methyl-pyrazol-4-yl]-2-(1-methylindazol-4-yl)thiazole-4-carboxamide] |  |  | 0.117 nM |  |  |  |  | 
26 | Cn1ncc(NC(=O)c2csc(-c3cccc4cnn(C)c34)n2)c1[C@@H]1CC[C@@H](N)[C@H](F)CO1 [Example 403, N-[5-[(2S,5R,6S)-5-amino-6-fluoro-oxepan-2-yl]-1-methyl-pyrazol-4-yl]-2-(1-methylindazol-7-yl)thiazole-4-carboxamide] |  |  | 5.91 nM |  |  |  |  | 
